Assay results: PubChem BioAssay (NCI)
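Growth conditions: 96-well plates. Treatment: test compound, 48 hours, 5 concentrations. Analysis: linear interpolation between bracketing concentrations; unreached endpoints set to highest concentration. Here, GI50 denotes the concentration required for 50% inhibition of growth. Definition used: TGI = concentration required for complete inhibition of growth.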

Key:
Test in all cases: NCI tumour cell line growth inhibition, 48 h
NCI-H522 lung = tested on: NCI-H522 lung
K-562 leukemia = tested on: K-562 leukemia
OVCAR-3 ovarian = tested on: OVCAR-3 ovarian
HOP-92 NSCLC = tested on: HOP-92 NSCLC
COLO 205 colon = tested on: COLO 205 colon
PC-3 prostate = tested on: PC-3 prostate
HCT-15 colon = tested on: HCT-15 colon
NCI-H226 lung = tested on: NCI-H226 lung
CAKI-1 renal = tested on: CAKI-1 renal
OVCAR-8 ovarian = tested on: OVCAR-8 ovarian
HOP-62 NSCLC = tested on: HOP-62 NSCLC
SR leukemia = tested on: SR leukemia
DU-145 prostate = tested on: DU-145 prostate
MOLT-4 leukemia = tested on: MOLT-4 leukemia
EKVX NSCLC = tested on: EKVX NSCLC
HS 578T breast = tested on: HS 578T breast
HT29 colon = tested on: HT29 colon
TK-10 renal = tested on: TK-10 renal
SW-620 colon = tested on: SW-620 colon
SNB-19 CNS = tested on: SNB-19 CNS
A549 NSCLC = tested on: A549 NSCLC
MALME-3M melanoma = tested on: MALME-3M melanoma
M14 melanoma = tested on: M14 melanoma
SK-MEL-2 melanoma = tested on: SK-MEL-2 melanoma
SK-MEL-5 melanoma = tested on: SK-MEL-5 melanoma
HCT-116 colon = tested on: HCT-116 colon
MCF7 breast = tested on: MCF7 breast
MDA-MB-435 = tested on: MDA-MB-435
U251 CNS = tested on: U251 CNS
UO-31 renal = tested on: UO-31 renal
HL-60(TB) leukemia = tested on: HL-60(TB) leukemia
RXF 393 renal = tested on: RXF 393 renal
SF-539 CNS = tested on: SF-539 CNS
A498 renal = tested on: A498 renal
SF-268 CNS = tested on: SF-268 CNS
T-47D breast = tested on: T-47D breast
SF-295 CNS = tested on: SF-295 CNS
SK-OV-3 ovarian = tested on: SK-OV-3 ovarian
NCI-H23 lung = tested on: NCI-H23 lung
OVCAR-4 ovarian = tested on: OVCAR-4 ovarian
SN12C renal = tested on: SN12C renal
LOX IMVI melanoma = tested on: LOX IMVI melanoma
OVCAR-5 ovarian = tested on: OVCAR-5 ovarian
IGROV1 ovarian = tested on: IGROV1 ovarian
CCRF-CEM leukemia = tested on: CCRF-CEM leukemia
BT-549 breast = tested on: BT-549 breast
ACHN renal = tested on: ACHN renal
NCI-H460 lung = tested on: NCI-H460 lung
KM12 colon = tested on: KM12 colon
SNB-75 CNS = tested on: SNB-75 CNS
MDA-MB-231 breast = tested on: MDA-MB-231 breast
NCI/ADR-RES ovarian = tested on: NCI/ADR-RES ovarian
786-0 renal = tested on: 786-0 renal
SK-MEL-28 melanoma = tested on: SK-MEL-28 melanoma
UACC-62 melanoma = tested on: UACC-62 melanoma
HCC-2998 colon = tested on: HCC-2998 colon
RPMI-8226 leukemia = tested on: RPMI-8226 leukemia

SMILES: C/C(=C\C1=C(Cl)C(=O)c2ccccc2C1=O)C(=O)O
- GI50 (NCI-H522 lung): 11.9 µM
- TGI (NCI-H522 lung): 26.9 µM
- GI50 (K-562 leukemia): 23.1 µM
- TGI (K-562 leukemia): 54.9 µM
- GI50 (OVCAR-3 ovarian): 19.4 µM
- TGI (OVCAR-3 ovarian): 34.2 µM
- GI50 (HOP-92 NSCLC): 18.6 µM
- TGI (HOP-92 NSCLC): 33 µM
- GI50 (COLO 205 colon): 18.7 µM
- TGI (COLO 205 colon): 34 µM
- GI50 (PC-3 prostate): 17.3 µM
- TGI (PC-3 prostate): 31.1 µM
- GI50 (HCT-15 colon): 18.2 µM
- TGI (HCT-15 colon): 36.5 µM
- GI50 (NCI-H226 lung): 19.6 µM
- TGI (NCI-H226 lung): 37.5 µM
- GI50 (CAKI-1 renal): 22.1 µM
- TGI (CAKI-1 renal): 36.6 µM
- GI50 (OVCAR-8 ovarian): 22.6 µM
- TGI (OVCAR-8 ovarian): 45.6 µM
- GI50 (HOP-62 NSCLC): 18.8 µM
- TGI (HOP-62 NSCLC): 33.7 µM
- GI50 (SR leukemia): 24.2 µM
- TGI (SR leukemia): > 100 µM
- GI50 (DU-145 prostate): 17.6 µM
- TGI (DU-145 prostate): 34.6 µM
- GI50 (MOLT-4 leukemia): 28.2 µM
- TGI (MOLT-4 leukemia): > 100 µM
- GI50 (EKVX NSCLC): 18.6 µM
- TGI (EKVX NSCLC): 37.2 µM
- GI50 (HS 578T breast): 30.3 µM
- TGI (HS 578T breast): 69.3 µM
- GI50 (HT29 colon): 20.1 µM
- TGI (HT29 colon): 36.7 µM
- GI50 (TK-10 renal): 23.3 µM
- TGI (TK-10 renal): 38.1 µM
- GI50 (SW-620 colon): 21.7 µM
- TGI (SW-620 colon): 37.4 µM
- GI50 (SNB-19 CNS): 17.7 µM
- TGI (SNB-19 CNS): 31.7 µM
- GI50 (A549 NSCLC): 21.9 µM
- TGI (A549 NSCLC): 43 µM
- GI50 (MALME-3M melanoma): 24 µM
- TGI (MALME-3M melanoma): 40.2 µM
- GI50 (M14 melanoma): 17.7 µM
- TGI (M14 melanoma): 31.7 µM
- GI50 (SK-MEL-2 melanoma): 18.1 µM
- TGI (SK-MEL-2 melanoma): 33.4 µM
- GI50 (SK-MEL-5 melanoma): 17.5 µM
- TGI (SK-MEL-5 melanoma): 31.3 µM
- GI50 (HCT-116 colon): 28.4 µM
- TGI (HCT-116 colon): > 100 µM
- GI50 (MCF7 breast): 17.6 µM
- TGI (MCF7 breast): 43.3 µM
- GI50 (MDA-MB-435): 19.4 µM
- TGI (MDA-MB-435): 34.8 µM
- GI50 (U251 CNS): 15.8 µM
- TGI (U251 CNS): 29.4 µM
- GI50 (UO-31 renal): 15.5 µM
- TGI (UO-31 renal): 28.9 µM
- GI50 (HL-60(TB) leukemia): 25.4 µM
- TGI (HL-60(TB) leukemia): 63.5 µM
- GI50 (RXF 393 renal): 18.3 µM
- TGI (RXF 393 renal): 33.1 µM
- GI50 (SF-539 CNS): 17.7 µM
- TGI (SF-539 CNS): 31.9 µM
- GI50 (A498 renal): 21.9 µM
- TGI (A498 renal): 36.3 µM
- GI50 (SF-268 CNS): 18.3 µM
- TGI (SF-268 CNS): 32.2 µM
- GI50 (T-47D breast): 15.3 µM
- TGI (T-47D breast): 48.7 µM
- GI50 (SF-295 CNS): 19 µM
- TGI (SF-295 CNS): 33.4 µM
- GI50 (SK-OV-3 ovarian): 19 µM
- TGI (SK-OV-3 ovarian): 33.1 µM
- GI50 (NCI-H23 lung): 21.5 µM
- TGI (NCI-H23 lung): 45.7 µM
- GI50 (OVCAR-4 ovarian): 19.9 µM
- TGI (OVCAR-4 ovarian): 36.3 µM
- GI50 (SN12C renal): 24.5 µM
- TGI (SN12C renal): 55.1 µM
- GI50 (LOX IMVI melanoma): 17.6 µM
- TGI (LOX IMVI melanoma): 38.6 µM
- GI50 (OVCAR-5 ovarian): 22.5 µM
- TGI (OVCAR-5 ovarian): 37.4 µM
- GI50 (IGROV1 ovarian): 15.1 µM
- TGI (IGROV1 ovarian): 28.6 µM
- GI50 (CCRF-CEM leukemia): 21.8 µM
- TGI (CCRF-CEM leukemia): 46.2 µM
- GI50 (BT-549 breast): 14.2 µM
- TGI (BT-549 breast): 27.5 µM
- GI50 (ACHN renal): 18.5 µM
- TGI (ACHN renal): 32.7 µM
- GI50 (NCI-H460 lung): 21.9 µM
- TGI (NCI-H460 lung): 45.1 µM
- GI50 (KM12 colon): 18.1 µM
- TGI (KM12 colon): 33.7 µM
- GI50 (SNB-75 CNS): 21.5 µM
- TGI (SNB-75 CNS): 35.9 µM
- GI50 (MDA-MB-231 breast): 18.6 µM
- TGI (MDA-MB-231 breast): 33.8 µM
- GI50 (NCI/ADR-RES ovarian): 21.1 µM
- TGI (NCI/ADR-RES ovarian): 46.8 µM
- GI50 (786-0 renal): 17.6 µM
- TGI (786-0 renal): 32.3 µM
- GI50 (SK-MEL-28 melanoma): 20.2 µM
- TGI (SK-MEL-28 melanoma): 34.6 µM
- GI50 (UACC-62 melanoma): 17.2 µM
- TGI (UACC-62 melanoma): 31.5 µM
- GI50 (HCC-2998 colon): 18.9 µM
- TGI (HCC-2998 colon): 33.3 µM
- GI50 (RPMI-8226 leukemia): 20.2 µM
- TGI (RPMI-8226 leukemia): 46.5 µM
